Assay results reported in US11723883B2, “Hydroxynorketamine for the use in the treatment of depression” (DEVELCO PHARMA SCHWEIZ AG, priority 2017, dated 2023).

Tests used:
[1] = system: mice; conditions: Zanos et al., 2016, cited from earlier work
[2] = Dose-escalation pharmacokinetics and metabolism study in 15 healthy subjects (LC-MS/MS)
Description: (§1) A dose-escalation study was performed in five consecutive periods (7 days wash-out) in 15 healthy subjects (5 females, 20-25, BMI 19.4-27.6 kg/m2). The racemic analytes were measured using validated LC-MS/MS methods according to Hasan et al., 2017 (Hasan et al., Quantitative chiral and achiral determination of ketamine and its metabolites by LC-MS/MS in human serum, urine and fecal samples, Journal of Pharmaceutical and Biomedical Analysis, 2017, 139, 87-97).
(§2) In addition, 5 mg ketamine (in form of ketamine hydrochloride) solution was intravenously administered within 30 min in fasting state.
The pharmacokinetics of ketamine and its metabolites norketamine and hydroxynorketamine were measured and depicted in the following table 1. AUC stands for the area under the curve, Cmax stands for the maximum plasma concentration, Tmax stands for the time to Cmax, F stands for absolute bioavailability, T1/2 stands for the apparent terminal half-life, AUCNK/K for the ratio of AUCNK to AUCK and AUCHNK/K for the ratio of AUCHNK to AUCK.
The maximum concentration (Cmax) and the time of maximum concentration (Tmax) were obtained directly from the measured concentration-time curves.
The area under the concentrations-time curve (AUC) was calculated with the measured data points from the time of administration until the last quantifiable concentration by the trapezoidal formula. The AUC was assessed up to the last sampling time above the limit of quantification and is extrapolated to infinity to obtain the AUC values.
Apparent Terminal half-life (T1/2) was calculated by the following equation T1/2=ln 2/λz.
The terminal elimination rate constant (λz) was evaluated from the terminal slope by log-linear regression analysis.
The absolute bioavailability (F) was calculated by the following equation Fabs=AUCoral/AUCiv×doseiv/doseoral. 4.2 Safety

[3] = Safety: adverse events in the dose-escalation study in healthy subjects
Description: as §1, §2
An adverse event (AE) therefore can be any unfavorable and unintended sign including an abnormal laboratory (or vital, ECG etc.) finding, symptom or disease temporally associated with the use of a medicinal (investigational) product, whether or not related to the medicinal (investigational) product.
A serious adverse event (SAE) is defined as any untoward medical occurrence that at any dose • results in death, or • is life-threatening, or • requires hospitalization or prolongation of existing hospitalization, or • results in persistent or significant disability/incapacity, or • is a congenital anomaly/birth defect
Adverse events (AE) were detected both by a standardized questionnaire on tolerability and by querying the subjects at the scheduled times. Furthermore, the subjects were asked to report any AE spontaneously.

[4] = system: patients with major depressive disorder and bipolar depression; conditions: single intravenous 40-minute infusion; lasting 1 week; Zarate et al., 2012; cited from earlier work
[5] = 5 mg ketamine i.v. infusion (30 min), fasting
[6] = Treatment A ketamine 5 mg i.v., AEs certainly, probably or possibly related

Structure (SMILES)	ketamine-related side effects [1]	antidepressant-related actions ([1]; independent of NMDR-inhibition)	CL/F of ketamine [2, 5]	CLM of ketamine [2, 5]	CLintestinal of ketamine [2, 5]	AUC ([2]; both, human, plasma, iv, 5 mg)	CL renal ([2]; both, human, plasma, iv, 5 mg)	Cmax ([2]; both, human, plasma, iv, 5 mg)	MRT ([2]; both, human, plasma, iv, 5 mg)	Vd ([2]; both, human, plasma, iv, 5 mg)	half-life ([2]; both, human, plasma, iv, 5 mg)	Number of AEs ([3]; Treatment A (ketamine 5 mg i.v.))	Number of subjects reporting dizziness (nervous system disorders) [3, 6]	Number of subjects reporting palpitation (cardiac disorders) [3, 6]	Number of subjects reporting tachycardia (cardiac disorder) [3, 6]	Percent of subjects reporting dizziness (nervous system disorders) [3, 6]	Percent of subjects reporting palpitation (cardiac disorders) [3, 6]	Percent of subjects reporting tachycardia (cardiac disorder) [3, 6]	improvement in patients with major depressive disorder and bipolar depression [4]
N[C@@]1(c2ccccc2Cl)CCC[C@@H](O)C1=O [(2R,6R)-hydroxynorketamine]	lack ketamine-related side effects	exerts antidepressant-related actions																	
CNC1(c2ccccc2Cl)CCCCC1=O (racemic) [ketamine, 2-(2-chlorophenyl)-2-(methylamino) cyclohexan-1-one]			1.67 ± 0.380 L/min	268 ± 75.6 mL/min	0.046 ± 0.097 mL/min	52.3 ± 12.2 ng·h/mL	33.6 ± 36.5 mL/min	29.9 ± 8.48 ng/mL	4.68 ± 2.01 h	6.58 ± 3.07 L/kg	5.89 ± 2.61 h	10	6	1	1	40%	7%	7%	rapid improvement
